# How the values were obtained:
# Test in all cases: relative viability (nuclei count vs DMSO), 5 days (fraction); higher = more cells survive
# Bexarotene + Palbociclib = compound: C=C(c1ccc(C(=O)O)cc1)c1cc2c(cc1C)C(C)(C)CCC2(C)C [Bexarotene] + CC(=O)c1c(C)c2cnc(Nc3ccc(N4CCNCC4)cn3)nc2n(C2CCCC2)c1=O [Palbociclib] (partner 0.5 µM)
# In short: (§1)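 Relative viability is defined as nuclei in treated wells over nuclei in vehicle wells. Duplicate plates were run and medians reported. Lung cancer cell lines in 1536-well plates were dosed by pin tool one day after seeding, with one drug or with a fixed anchor-drug dose plus five library-drug doses (not always all listed) in √10 steps, and nuclei were counted after 5 days.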
# Bexarotene + Bortezomib = compound: C=C(c1ccc(C(=O)O)cc1)c1cc2c(cc1C)C(C)(C)CCC2(C)C [Bexarotene] + CC(C)C[C@H](NC(=O)[C@H](Cc1ccccc1)NC(=O)c1cnccn1)B(O)O [Bortezomib] (partner 0.002 µM)
# In short: as §1
# Bexarotene + Alpelisib = compound: C=C(c1ccc(C(=O)O)cc1)c1cc2c(cc1C)C(C)(C)CCC2(C)C [Bexarotene] + Cc1nc(NC(=O)N2CCC[C@H]2C(N)=O)sc1-c1ccnc(C(C)(C)C(F)(F)F)c1 [Alpelisib] (partner 2 µM)
# In short: as §1
# Bexarotene + Dasatinib = compound: C=C(c1ccc(C(=O)O)cc1)c1cc2c(cc1C)C(C)(C)CCC2(C)C [Bexarotene] + Cc1nc(Nc2ncc(C(=O)Nc3c(C)cccc3Cl)s2)cc(N2CCN(CCO)CC2)n1 [Dasatinib] (partner 0.075 µM)
# In short: as §1
Cell Line,relative viability (Bexarotene + Palbociclib; first compound 0.08 µM),relative viability (Bexarotene + Palbociclib; first compound 0.253 µM),relative viability (Bexarotene + Palbociclib; first compound 0.8 µM),relative viability (Bexarotene + Palbociclib; first compound 2.53 µM),relative viability (Bexarotene + Palbociclib; first compound 8 µM),relative viability (Bexarotene + Bortezomib; first compound 0.08 µM),relative viability (Bexarotene + Bortezomib; first compound 0.253 µM),relative viability (Bexarotene + Bortezomib; first compound 0.8 µM),relative viability (Bexarotene + Bortezomib; first compound 8 µM),relative viability (Bexarotene + Alpelisib; first compound 0.08 µM),relative viability (Bexarotene + Alpelisib; first compound 0.253 µM),relative viability (Bexarotene + Alpelisib; first compound 0.8 µM),relative viability (Bexarotene + Alpelisib; first compound 8 µM),relative viability (Bexarotene + Dasatinib; first compound 0.08 µM),relative viability (Bexarotene + Dasatinib; first compound 0.253 µM),relative viability (Bexarotene + Dasatinib; first compound 0.8 µM),relative viability (Bexarotene + Dasatinib; first compound 2.53 µM),relative viability (Bexarotene + Dasatinib; first compound 8 µM),relative viability (Bexarotene + Alpelisib; first compound 2.53 µM),relative viability (Bexarotene + Bortezomib; first compound 2.53 µM)
NCI-H441,0.295,0.228,0.256,0.243,0.23,0.472,0.633,0.592,0.619,1.09,1.06,0.727,0.841,0.857,0.701,1,0.717,0.579,,
NCI-H1793,0.31,0.318,0.284,0.264,0.327,,,,,0.956,0.81,0.81,0.824,0.367,0.366,0.409,0.406,0.399,0.727,
NCI-H23,0.554,0.567,0.571,0.555,0.543,1.1,1.03,1.02,0.962,0.812,0.782,0.551,0.656,0.944,0.594,0.635,0.884,0.691,0.829,0.9
HARA,0.269,0.239,0.243,0.294,0.277,1.16,1.04,1.02,1.03,0.705,0.714,0.456,0.597,0.324,0.268,0.332,0.407,0.567,0.52,1.02
NCI-H1792,0.706,0.611,0.616,0.588,0.607,0.871,0.981,0.809,0.681,0.534,0.697,0.532,0.413,0.82,0.769,0.764,0.786,0.689,0.585,0.761
NCI-H1703,,,,,,0.254,0.253,0.258,0.27,0.423,0.364,0.402,0.324,,,,,,0.242,0.227
NCI-H1648,0.222,0.313,0.229,0.235,0.23,,,,,,,,,,,,,,,
CAL-12T,0.442,0.465,0.342,0.417,0.441,1.02,,0.849,0.816,1.29,1.3,1.33,0.94,0.296,0.327,0.332,0.302,0.271,1.17,
NCI-H727,0.683,0.578,0.595,0.696,0.711,1.21,0.735,0.899,0.955,0.808,0.522,0.503,0.701,0.405,0.311,0.388,0.316,0.37,0.58,0.822
NCI-H2085,0.411,0.434,0.415,0.374,0.383,1.04,0.918,0.929,0.939,0.892,0.924,0.873,0.824,0.25,0.2,0.19,0.218,0.241,0.855,0.946
NCI-H1395,0.583,0.638,0.615,0.618,0.618,,,,,1.18,1.06,0.93,1.08,0.448,0.385,0.367,0.407,0.419,1.03,
SW 900,0.553,0.41,0.52,0.423,0.411,,,,,,,,,0.703,0.55,0.505,0.544,0.772,,
NCI-H460,0.147,0.156,0.237,0.105,0.158,1.16,1.09,0.961,1.04,0.654,0.733,0.539,0.519,0.615,0.531,0.565,0.512,0.505,0.596,1.14
A549,,,,,,,,,,0.992,0.826,0.836,0.686,,,,,,0.671,
IA-LM,,,,,,0.683,0.697,0.596,0.518,0.771,0.702,0.67,0.669,,,,,,0.581,0.662
EKVX,0.37,0.366,0.384,0.438,0.362,0.999,1.28,1.07,1.09,0.889,0.855,0.781,0.76,0.515,0.512,0.567,0.523,0.463,0.849,1.1
ChaGo-K-1,1.09,0.983,0.99,0.967,1.01,1.04,1.03,1.05,1.06,,,,,0.568,0.604,0.638,0.661,0.593,,

Cell Line,relative viability (Bexarotene + Palbociclib; first compound 0.08 µM),relative viability (Bexarotene + Palbociclib; first compound 0.253 µM),relative viability (Bexarotene + Palbociclib; first compound 0.8 µM),relative viability (Bexarotene + Palbociclib; first compound 2.53 µM),relative viability (Bexarotene + Palbociclib; first compound 8 µM),relative viability (Bexarotene + Bortezomib; first compound 0.08 µM),relative viability (Bexarotene + Bortezomib; first compound 0.253 µM),relative viability (Bexarotene + Bortezomib; first compound 0.8 µM),relative viability (Bexarotene + Bortezomib; first compound 8 µM),relative viability (Bexarotene + Alpelisib; first compound 0.08 µM),relative viability (Bexarotene + Alpelisib; first compound 0.253 µM),relative viability (Bexarotene + Alpelisib; first compound 0.8 µM),relative viability (Bexarotene + Alpelisib; first compound 8 µM),relative viability (Bexarotene + Dasatinib; first compound 0.08 µM),relative viability (Bexarotene + Dasatinib; first compound 0.253 µM),relative viability (Bexarotene + Dasatinib; first compound 0.8 µM),relative viability (Bexarotene + Dasatinib; first compound 2.53 µM),relative viability (Bexarotene + Dasatinib; first compound 8 µM),relative viability (Bexarotene + Alpelisib; first compound 2.53 µM),relative viability (Bexarotene + Bortezomib; first compound 2.53 µM)
NCI-H1755,0.463,0.479,0.438,0.48,0.44,1.02,1.03,1.02,0.957,0.917,1.05,0.94,0.917,0.436,0.395,0.366,0.403,0.361,0.876,1
NCI-H2228,0.968,0.603,0.707,0.702,0.699,1.08,1.3,1.05,0.841,0.669,0.722,0.609,0.499,0.56,0.635,0.48,0.343,0.509,0.629,1.11
NCI-H2087,0.254,0.238,0.198,0.274,0.226,0.877,0.972,0.979,0.725,1.27,1.11,1.08,1.05,1.02,0.919,0.703,0.843,0.903,0.997,0.753
LU99A,0.449,0.395,0.355,0.468,0.371,1.36,1.26,1.12,1.21,0.592,0.57,0.535,0.61,0.748,0.703,0.711,0.613,0.699,0.475,1.23
NCI-H1355,0.422,0.387,0.384,0.446,0.434,1.17,1.35,1.21,1.14,0.957,0.894,0.765,0.876,0.744,0.814,0.55,0.627,0.707,0.916,1.32
LK-2,0.656,0.825,0.702,0.695,0.669,,,,,1.15,1.12,1.12,1.15,0.314,0.474,0.39,,0.465,1.25,
NCI-H1944,0.419,0.427,0.369,0.379,0.345,,,,,1.08,1.05,0.913,0.867,0.24,0.216,0.222,0.221,0.293,0.954,
NCI-H1650,0.355,0.285,0.279,0.271,0.282,0.218,0.21,0.178,0.227,,,,,0.383,0.38,0.408,0.333,0.296,,0.204
NCI-H596,,,,,,1.01,0.986,0.836,0.85,0.581,0.6,0.479,0.565,0.671,0.654,0.773,0.907,0.704,0.668,0.795
SK-MES-1,0.347,0.352,0.314,0.313,0.267,,,,,1.06,0.948,0.961,0.956,0.283,0.459,0.348,0.401,0.313,0.893,
NCI-H2170,0.343,0.403,0.324,0.325,0.331,,,,,0.762,0.777,0.782,0.66,0.615,0.466,0.522,0.476,0.584,0.759,
NCI-H358,0.129,0.138,0.154,0.124,0.138,,,,,1.07,0.881,0.579,0.923,0.224,0.33,0.251,0.234,0.259,1.03,
NCI-H1563,,,,,,0.9,0.814,0.741,0.98,0.947,0.804,0.955,0.839,0.489,0.423,0.449,0.469,0.487,0.973,0.83
EBC-1,,,,,,0.63,0.541,0.415,0.442,1.22,0.989,0.756,0.868,,,,,,0.89,0.555
Calu-6,,,,,,1,0.915,0.904,1.27,1.12,0.917,0.934,1.05,,,,,,0.958,0.922
HCC-44,1,1.03,0.836,0.93,0.946,0.997,1,0.851,0.822,0.894,0.855,0.741,0.722,,,,,,0.735,0.823

# — the supplement of paper PMC10307832
